The results in this text go back to patent US20210246122A1, “Triazine Compounds and Uses Thereof” (Aduro Biotech, Inc., priority 2018, published 2021).

The subject of experiment [1] is cGAS/STING pathway. Nature of the experiment: THP1 cell-based cGAS/STING pathway activity assay (luciferase reporter linked to IRF-3 activation). Conditions: Homo sapiens, THP-1; THP1 cells, IRF-3 linked luciferase reporter. The method, then: A cellular assay can be used to assess the compounds of the invention for their ability to inhibit the cGAS/STING pathway. Cells that express a luciferase-based reporter that is linked to IRF-3 activation are used to determine response as a function of compound concentration. Such an assay is described in Vincent et al., Nature Communications 2017, 8(1):750, doi: 10.1038/s41467-017-00833-9. Compounds of the invention were assessed using similar assay methods in a THP1 cell assay to generate IC50 values as provided in the following Table 8. In this table, activity level “A” indicates an IC50 value less than 20 μM, “B” indicates an IC50 value between 20 and 100 μM, and “C” indicates an IC50 value above the upper limit of the assay (100 μM), or where an IC50 value could not be generated from the data.
On the technique in general: In a reporter assay the amount or activity of a reporter protein is the signal.

Experiment [2] addresses T1, Human cGAS amino acids 155-522 (Homo sapiens, UniProt Q8N884).
T1 construct: hexahistidine tag (N, cleaved yes); made in house; host or cells: E. coli BL21 DE3 Rosetta 2
Nature of the experiment: cGAS activity assay (DNA-activated cGAS, remaining ATP measured by Kinase-Glo Max luciferase assay). Conditions: 300 nM purified cGAS, 1 μM dsDNA, 250 μM ATP, 100 μM GTP, 37° C. for 1.25 hours. It counts as biochemical. An outline of the steps:
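Recombinant human cGAS 155-522 (300 nM) activated by 1 μM annealed dsDNA, run at 37° C for 1.25 h in Tris pH 9 buffer with 250 μM ATP and 100 μM GTP, 5% final DMSO. Compounds from 1 μM in 3- or 4-fold dilutions; remaining ATP read by luciferase luminescence, normalized to no-compound wells.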
(Kinase-Glo reads ATP consumption through a luciferase reaction.)

pIC50: −log10 of the molar value.

T1 sequence (Q8N884 157-522): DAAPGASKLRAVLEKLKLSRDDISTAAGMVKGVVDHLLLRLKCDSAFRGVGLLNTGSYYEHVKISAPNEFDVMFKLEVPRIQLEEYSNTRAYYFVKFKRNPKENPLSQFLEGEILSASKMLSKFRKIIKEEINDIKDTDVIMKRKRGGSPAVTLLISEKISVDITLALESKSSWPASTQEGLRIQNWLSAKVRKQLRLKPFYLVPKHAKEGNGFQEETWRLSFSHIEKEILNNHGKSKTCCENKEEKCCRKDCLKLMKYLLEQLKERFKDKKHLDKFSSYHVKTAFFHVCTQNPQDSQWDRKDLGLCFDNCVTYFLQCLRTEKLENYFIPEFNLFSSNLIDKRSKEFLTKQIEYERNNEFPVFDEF

`COC(=O)[C@H](Cc1ccc(C#N)cc1)Nc1nc(NCc2nc3cc(Cl)ccc3[nH]2)nc(Nc2cccc(CN3CCN(C(=O)c4nccnc4O)CC3)c2)n1` [TA1059, methyl (S)-2-((4-(((5-chloro-1H-benzo[d]imidazol-2-yl)methyl)amino)-6-((3-((4-(3-hydroxypyrazine-2-carbonyl)piperazin-1-yl)methyl)phenyl)amino)-1,3,5-triazin-2-yl)amino)-3-(4-cyanophenyl)propanoate]: the pIC50 (commonly the IC50 on a negative log10 scale, so that one unit is a factor of ten) is below 4.00 in experiment [1] and above 4.70 in experiment [2].

For `COC(=O)[C@H](Cc1ccc(C#N)cc1)Nc1nc(NCc2nc3cc(Cl)ccc3[nH]2)nc(Nc2cccc(CN3CCN(C(=O)c4c[nH]nn4)CC3)c2)n1` [TA1061, methyl (S)-2-((4-((3-((4-(1H-1,2,3-triazole-4-carbonyl)piperazin-1-yl)methyl)phenyl)amino)-6-(((5-chloro-1H-benzo[d]imidazol-2-yl)methyl)amino)-1,3,5-triazin-2-yl)amino)-3-(4-cyanophenyl)propanoate], the values for the negative logarithm of the IC50 (pIC50) in experiment [1] and in experiment [2] were below 4.00 and above 4.70, respectively.

In the case of `COC(=O)[C@H](Cc1ccccc1)Nc1nc(NCc2nc3cc(F)ccc3[nH]2)nc(Nc2cccc(CN3CCN(C(=O)c4nccnc4O)CC3)c2)n1` [TA1065, methyl (4-(((5-fluoro-1H-benzo[d]imidazol-2-yl)methyl)amino)-6-((3-((4-(3-hydroxypyrazine-2-carbonyl)piperazin-1-yl)methyl)phenyl)amino)-1,3,5-triazin-2-yl)-L-phenylalaninate], the pIC50 in experiment [1] was 4.00 to 4.70; in experiment [2] it was above 4.70.

On to `COC(=O)[C@H](Cc1ccc(C#N)cc1)Nc1nc(NCc2nc3cc(F)ccc3[nH]2)nc(Nc2cccc(CN3CCN(C(=O)c4ccnnc4O)CC3)c2)n1` [TA1066, methyl (S)-3-(4-cyanophenyl)-2-((4-(((5-fluoro-1H-benzo[d]imidazol-2-yl)methyl)amino)-6-((3-((4-(3-hydroxypyridazine-4-carbonyl)piperazin-1-yl)methyl)phenyl)amino)-1,3,5-triazin-2-yl)amino)propanoate], for which the results for the negative logarithm of the IC50 (pIC50) in experiment [1] and in experiment [2] were below 4.00 and above 4.70, respectively.

With `COCCOCCOC(=O)[C@H](Cc1ccc(C#N)cc1)Nc1nc(NCc2nc3cc(F)ccc3[nH]2)nc(Nc2cccc(CN3CCN(C(=O)c4nccnc4O)CC3)c2)n1` [TA1070, 2-(2-methoxyethoxy)ethyl (S)-3-(4-cyanophenyl)-2-((4-(((5-fluoro-1H-benzo[d]imidazol-2-yl)methyl)amino)-6-((3-((4-(3-hydroxypyrazine-2-carbonyl)piperazin-1-yl)methyl)phenyl)amino)-1,3,5-triazin-2-yl)amino)propanoate], the pIC50 is below 4.00 in experiment [1] and above 4.70 in experiment [2].

Take `N#Cc1ccc(C[C@H](Nc2nc(NCc3nc4cc(F)ccc4[nH]3)nc(Nc3cccc(CN4CCN(C(=O)c5nccnc5O)CC4)c3)n2)C(=O)O)cc1` [TA1071, (S)-3-(4-cyanophenyl)-2-((4-(((5-fluoro-1H-benzo[d]imidazol-2-yl)methyl)amino)-6-((3-((4-(3-hydroxypyrazine-2-carbonyl)piperazin-1-yl)methyl)phenyl)amino)-1,3,5-triazin-2-yl)amino)propanoic acid]: the figures for the negative-log IC50 (pIC50) in experiment [1] and in experiment [2] were below 4.00 and above 4.70, respectively.
